Assay results: patent US8435980B2 (AbbVie Inc., priority 2009, dated 2013)

Molecular target: T1, Cdc7 (BEV coexpressed huCDC7/DBF4) (Homo sapiens, UniProt O00311)
T1 construct: made in house; host or cells: BEV (baculovirus expression vector) co-expression; insect cells are implied but no cell line is named
Test: Cdc7 enzyme inhibition assay ([33P]ATP, biotinylated peptide substrate, FlashPlate)
Type: biochemical
Conditions: Table 3; enzyme inhibition data (Ki)
Procedure: Cdc7 (BEV coexpressed huCDC7/DBF4) is prepared internally. Cdc7 assays are conducted as follows with final concentrations as listed. […] Reactions are quenched after 1 hr by the addition of 90 μL stop buffer (50 mM EDTA, 2M NaCl). […] (Ki) for exemplary compounds.

T1 sequence (O00311 whole entry): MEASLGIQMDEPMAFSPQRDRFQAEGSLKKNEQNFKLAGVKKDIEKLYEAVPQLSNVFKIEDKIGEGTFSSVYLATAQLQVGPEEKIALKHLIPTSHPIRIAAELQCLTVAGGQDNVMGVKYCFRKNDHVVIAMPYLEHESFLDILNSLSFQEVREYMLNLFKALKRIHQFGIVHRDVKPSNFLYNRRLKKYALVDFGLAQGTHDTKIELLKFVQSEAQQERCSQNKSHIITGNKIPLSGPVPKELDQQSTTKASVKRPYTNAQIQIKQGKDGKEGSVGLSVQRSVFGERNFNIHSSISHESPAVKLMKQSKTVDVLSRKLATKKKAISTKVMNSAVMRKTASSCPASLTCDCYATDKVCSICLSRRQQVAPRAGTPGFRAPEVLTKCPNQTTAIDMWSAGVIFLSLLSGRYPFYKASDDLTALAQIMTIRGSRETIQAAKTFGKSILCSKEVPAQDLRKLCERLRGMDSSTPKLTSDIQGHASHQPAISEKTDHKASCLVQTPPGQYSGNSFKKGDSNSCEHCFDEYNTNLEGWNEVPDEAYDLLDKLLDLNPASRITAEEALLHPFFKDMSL
T1 sequence (Q9UBU7 whole entry partner): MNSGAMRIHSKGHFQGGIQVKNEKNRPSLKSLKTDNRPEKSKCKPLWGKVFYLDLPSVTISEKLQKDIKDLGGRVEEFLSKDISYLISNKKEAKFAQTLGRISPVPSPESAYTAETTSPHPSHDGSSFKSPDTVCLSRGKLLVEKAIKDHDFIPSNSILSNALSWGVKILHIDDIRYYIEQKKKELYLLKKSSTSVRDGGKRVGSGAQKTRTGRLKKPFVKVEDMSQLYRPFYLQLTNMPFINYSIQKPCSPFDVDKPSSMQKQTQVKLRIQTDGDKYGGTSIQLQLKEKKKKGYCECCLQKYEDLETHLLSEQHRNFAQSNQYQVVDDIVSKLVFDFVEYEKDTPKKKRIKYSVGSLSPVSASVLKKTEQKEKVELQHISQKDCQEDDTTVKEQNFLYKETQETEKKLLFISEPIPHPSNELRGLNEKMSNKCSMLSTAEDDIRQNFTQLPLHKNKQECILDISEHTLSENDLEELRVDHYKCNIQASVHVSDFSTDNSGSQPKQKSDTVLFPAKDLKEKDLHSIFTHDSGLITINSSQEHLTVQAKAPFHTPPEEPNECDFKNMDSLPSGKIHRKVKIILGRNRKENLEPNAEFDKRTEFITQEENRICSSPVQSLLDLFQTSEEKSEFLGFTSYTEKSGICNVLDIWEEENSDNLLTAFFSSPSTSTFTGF

Ki [nM]	Compound
< 10	O=C1CC[C@@H](C(=O)N[C@H]2CC[C@H](Nc3cc(-c4c[nH]c5ncccc45)cc(Cl)n3)CC2)N1 [Example 338, N-(trans-4-{[6-chloro-4-(1H-pyrrolo[2,3-b]pyridin-3-yl)pyridin-2-yl]amino}cyclohexyl)-5-oxo-L-prolinamide]
< 10	CN1CCCCC1C(=O)NC1CCCC(Nc2cc(-c3c[nH]c4ncccc34)cc(Cl)n2)C1 (stereo not shown) [Example 339, N-(3-{[6-chloro-4-(1H-pyrrolo[2,3-b]pyridin-3-yl)pyridin-2-yl]amino}cyclohexyl)-1-methylpiperidine-2-carboxamide]
< 10	O=C(CN1CCCCCC1)NC1CCCC(Nc2cc(-c3c[nH]c4ncccc34)cc(Cl)n2)C1 (stereo not shown) [Example 340, 2-(azepan-1-yl)-N-(3-{[6-chloro-4-(1H-pyrrolo[2,3-b]pyridin-3-yl)pyridin-2-yl]amino}cyclohexyl)acetamide]
< 10	O=C(N[C@H]1CC[C@H](Nc2cc(-c3c[nH]c4ncccc34)cc(Cl)n2)CC1)C1CCCC1 [Example 341, N-(trans-4-{[6-chloro-4-(1H-pyrrolo[2,3-b]pyridin-3-yl)pyridin-2-yl]amino}cyclohexyl)cyclopentanecarboxamide]
< 10	O=C(NC1CCCC(Nc2cc(-c3c[nH]c4ncccc34)cc(Cl)n2)C1)C1CCNC1 (stereo not shown) [Example 343, N-(3-{[6-chloro-4-(1H-pyrrolo[2,3-b]pyridin-3-yl)pyridin-2-yl]amino}cyclohexyl)pyrrolidine-3-carboxamide]
< 10	O=C(NC1CCCC(Nc2cc(-c3c[nH]c4ncccc34)cc(Cl)n2)C1)C1CCNCC1 (stereo not shown) [Example 344, N-(3-{[6-chloro-4-(1H-pyrrolo[2,3-b]pyridin-3-yl)pyridin-2-yl]amino}cyclohexyl)piperidine-4-carboxamide]
< 10	O=C(NC1CCCC(Nc2cc(-c3c[nH]c4ncccc34)cc(Cl)n2)C1)C1CCCNC1 (stereo not shown) [Example 345, N-(3-{[6-chloro-4-(1H-pyrrolo[2,3-b]pyridin-3-yl)pyridin-2-yl]amino}cyclohexyl)piperidine-3-carboxamide]
< 10	CN1CCC(C(=O)NC2CCCC(Nc3cc(-c4c[nH]c5ncccc45)cc(Cl)n3)C2)C1 (stereo not shown) [Example 346, N-(3-{[6-chloro-4-(1H-pyrrolo[2,3-b]pyridin-3-yl)pyridin-2-yl]amino}cyclohexyl)-1-methylpyrrolidine-3-carboxamide]
< 10	CN1CCC(C(=O)NC2CCCC(Nc3cc(-c4c[nH]c5ncccc45)cc(Cl)n3)C2)CC1 (stereo not shown) [Example 347, N-(3-{[6-chloro-4-(1H-pyrrolo[2,3-b]pyridin-3-yl)pyridin-2-yl]amino}cyclohexyl)-1-methylpiperidine-4-carboxamide]
10 to 100	CN1CCCC(C(=O)NC2CCCC(Nc3cc(-c4c[nH]c5ncccc45)cc(Cl)n3)C2)C1 (stereo not shown) [Example 348, N-(3-{[6-chloro-4-(1H-pyrrolo[2,3-b]pyridin-3-yl)pyridin-2-yl]amino}cyclohexyl)-1-methylpiperidine-3-carboxamide]
10 to 100	CN(C)C1(C(=O)NC2CCCC(Nc3cc(-c4c[nH]c5ncccc45)cc(Cl)n3)C2)CCC1 (stereo not shown) [Example 349, N-(3-{[6-chloro-4-(1H-pyrrolo[2,3-b]pyridin-3-yl)pyridin-2-yl]amino}cyclohexyl)-1-(dimethylamino)cyclobutanecarboxamide]
< 10	C[C@@H](C(=O)NC1CCCC(Nc2cc(-c3c[nH]c4ncccc34)cc(Cl)n2)C1)N(C)C (stereo partly drawn) [Example 350, N-(3-{[6-chloro-4-(1H-pyrrolo[2,3-b]pyridin-3-yl)pyridin-2-yl]amino}cyclohexyl)-N~2~,N~2~-dimethyl-L-alaninamide]
< 10	O=C(CNCCO)N[C@H]1CC[C@H](Nc2cc(-c3c[nH]c4ncccc34)cc(Cl)n2)CC1 [Example 352, N-(trans-4-{[6-chloro-4-(1H-pyrrolo[2,3-b]pyridin-3-yl)pyridin-2-yl]amino}cyclohexyl)-N~2~-(2-hydroxyethyl)glycinamide]
< 10	O=C1c2ccccc2C(=O)N1CCS(=O)(=O)NC1CCCC(Nc2cc(-c3c[nH]c4ncccc34)cc(Cl)n2)C1 (stereo not shown) [Example 353, N-(3-{[6-chloro-4-(1H-pyrrolo[2,3-b]pyridin-3-yl)pyridin-2-yl]amino}cyclohexyl)-2-(1,3-dioxo-1,3-dihydro-2H-isoindol-2-yl)ethanesulfonamide]
< 10	CC(C)(C)CNCC(=O)N[C@H]1CC[C@H](Nc2cc(-c3c[nH]c4ncccc34)cc(Cl)n2)CC1 [Example 355, N-(trans-4-{[6-chloro-4-(1H-pyrrolo[2,3-b]pyridin-3-yl)pyridin-2-yl]amino}cyclohexyl)-N~2~-(2,2-dimethylpropyl)glycinamide]
< 10	CCN(CCO)CC(=O)N[C@H]1CC[C@H](Nc2cc(-c3c[nH]c4ncccc34)cc(Cl)n2)CC1 [Example 356, N-(trans-4-{[6-chloro-4-(1H-pyrrolo[2,3-b]pyridin-3-yl)pyridin-2-yl]amino}cyclohexyl)-N~2~-ethyl-N~2~-(2-hydroxyethyl)glycinamide]

Ki [nM]	Compound
< 10	Clc1cc(-c2c[nH]c3ncccc23)cc(N[C@H]2CC[C@H](NC3CCNCC3)CC2)n1 [Example 357, trans-N-[6-chloro-4-(1H-pyrrolo[2,3-b]pyridin-3-yl)pyridin-2-yl]-N′-(piperidin-4-yl)cyclohexane-1,4-diamine]
< 10	O=C1c2ccccc2C(=O)N1CCS(=O)(=O)N[C@H]1CC[C@H](Nc2cc(-c3c[nH]c4ncccc34)cc(Cl)n2)CC1 [Example 358, N-(trans-4-{[6-chloro-4-(1H-pyrrolo[2,3-b]pyridin-3-yl)pyridin-2-yl]amino}cyclohexyl)-2-(1,3-dioxo-1,3-dihydro-2H-isoindol-2-yl)ethanesulfonamide]
< 10	Clc1cc(-c2c[nH]c3ncccc23)cc(NC2CCC(CC3CCC(NC4CCC4)CC3)CC2)n1 (stereo not shown) [Example 359, 6-chloro-N-(4-{[4-(cyclobutylamino)cyclohexyl]methyl}cyclohexyl)-4-(1H-pyrrolo[2,3-b]pyridin-3-yl)pyridin-2-amine]
< 10	O=C(CN1CCCCC1)Nc1cc(-c2c[nH]c3ncccc23)cc(Cl)n1 [Example 360, N-[6-chloro-4-(1H-pyrrolo[2,3-b]pyridin-3-yl)pyridin-2-yl]-2-(piperidin-1-yl)acetamide]
< 10	Clc1cc(-c2c[nH]c3ncccc23)cc(N[C@H]2CC[C@H](NC3CCN(C4CCC4)CC3)CC2)n1 [Example 361, trans-N-[6-chloro-4-(1H-pyrrolo[2,3-b]pyridin-3-yl)pyridin-2-yl]-N′-(1-cyclobutylpiperidin-4-yl)cyclohexane-1,4-diamine]
10 to 100	CC(C)(C)OC(=O)N1CCC(C2CCC(Nc3cc(-c4c[nH]c5ncccc45)cc(Cl)n3)CC2)CC1 (stereo not shown) [Example 362, tert-butyl 4-(4-{[6-chloro-4-(1H-pyrrolo[2,3-b]pyridin-3-yl)pyridin-2-yl]amino}cyclohexyl)piperidine-1-carboxylate]
< 10	CC(C)(C)OC(=O)N1CC(C(=O)N[C@H]2CC[C@H](Nc3cc(-c4c[nH]c5ncccc45)cc(Cl)n3)CC2)C1 [Example 364, tert-butyl 3-[(trans-4-{[6-chloro-4-(1H-pyrrolo[2,3-b]pyridin-3-yl)pyridin-2-yl]amino}cyclohexyl)carbamoyl]azetidine-1-carboxylate]
< 10	O=C(C1CC1)N1CCC(C2CCC(Nc3cc(-c4c[nH]c5ncccc45)cc(Cl)n3)CC2)CC1 (stereo not shown) [Example 366, [4-(4-{[6-chloro-4-(1H-pyrrolo[2,3-b]pyridin-3-yl)pyridin-2-yl]amino}cyclohexyl)piperidin-1-yl](cyclopropyl)methanone]
< 10	O=C(N[C@H]1CC[C@H](Nc2cc(-c3c[nH]c4ncccc34)cc(Cl)n2)CC1)C1CCN(CCO)CC1 [Example 367, N-(trans-4-{[6-chloro-4-(1H-pyrrolo[2,3-b]pyridin-3-yl)pyridin-2-yl]amino}cyclohexyl)-1-(2-hydroxyethyl)piperidine-4-carboxamide]
< 10	O=C(NC1CCC(CC2CCC(Nc3cc(-c4c[nH]c5ncccc45)cc(Cl)n3)CC2)CC1)C1CC1 (stereo not shown) [Example 368, N-{4-[(4-{[6-chloro-4-(1H-pyrrolo[2,3-b]pyridin-3-yl)pyridin-2-yl]amino}cyclohexyl)methyl]cyclohexyl} cyclopropanecarboxamide]
< 10	CC(=O)N1CCC(NC2CCC(Nc3cc(-c4c[nH]c5ncccc45)cc(Cl)n3)CC2)CC1 (stereo not shown) [Example 369, 1-{4-[(4-{[6-chloro-4-(1H-pyrrolo[2,3-b]pyridin-3-yl)pyridin-2-yl]amino}cyclohexyl)amino]piperidin-1-yl}ethanone]
10 to 100	CS(=O)(=O)N1CCC(C2CCC(N(c3cc(-c4c[nH]c5ncccc45)cc(Cl)n3)S(C)(=O)=O)CC2)CC1 (stereo not shown) [Example 370, N-[6-chloro-4-(1H-pyrrolo[2,3-b]pyridin-3-yl)pyridin-2-yl]-N-{4-[1-(methylsulfonyl)piperidin-4-yl]cyclohexyl}methanesulfonamide]
< 10	CN1CCCC(C2CCC(Nc3cc(-c4c[nH]c5ncccc45)cc(Cl)n3)CC2)C1 (stereo not shown) [Example 371, 6-chloro-N-[4-(1-methylpiperidin-3-yl)cyclohexyl]-4-(1H-pyrrolo[2,3-b]pyridin-3-yl)pyridin-2-amine]
< 10	CN1CCCC(C2CCC(N(C)c3cc(-c4c[nH]c5ncccc45)cc(Cl)n3)CC2)C1 (stereo not shown) [Example 372, 6-chloro-N-methyl-N-[4-(1-methylpiperidin-3-yl)cyclohexyl]-4-(1H-pyrrolo[2,3-b]pyridin-3-yl)pyridin-2-amine]
< 10	O=C(NCCS(=O)(=O)N[C@H]1CC[C@H](Nc2cc(-c3c[nH]c4ncccc34)cc(Cl)n2)CC1)C1CC1 [Example 373, N-{2-[(trans-4-{[6-chloro-4-(1H-pyrrolo[2,3-b]pyridin-3-yl)pyridin-2-yl]amino}cyclohexyl)sulfamoyl]ethyl} cyclopropanecarboxamide]
